Source: US20230203081A1, “LINCOSAMIDE ANTIBIOTICS AND USES THEREOF” (President and Fellows of Harvard College, priority 2020, published 2023)
Values after ≈ are worked out from the molar mass of the structure shown. Where two headings read alike, the source gives them in different places.

Assays:
Format in all cases: cell-based
K. oxytoca Clinical = assay: MIC (broth microdilution or agar dilution, CLSI); conditions: Klebsiella oxytoca; K. oxytoca Clinical; read-out: MIC
Method in brief: (§1)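 Isolates other than streptococci and anaerobes, which had their own procedures, were grown overnight at 35° C on tryptic soy agar with 5% sheep blood. Suspensions were then diluted to a final inoculum of 5×10^5 CFU/mL in broth microdilution wells.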

S. pneumoniae ATCC 49619 = assay: MIC (broth microdilution or agar dilution, CLSI)
Method in brief: as §1

E. coli ATCC 25922 = assay: MIC (broth microdilution or agar dilution, CLSI); conditions: E. coli ATCC 25922
Method in brief: as §1

A. baumannii ATCC 19606 = assay: MIC (broth microdilution or agar dilution, CLSI); conditions: Acinetobacter baumannii, ATCC19606; A. baumannii ATCC 19606; read-out: MIC
Method in brief: as §1

[1] = tested on: S. pneumoniae MMX 3031 cMefA; assay: MIC (broth microdilution or agar dilution, CLSI); conditions: S. pneumoniae MMX 3031 cMefA
Method in brief: as §1

[2] = tested on: E. faecalis MMX 847; cErmB; assay: MIC (broth microdilution or agar dilution, CLSI); conditions: E. faecalis MMX 847, cErmB
Method in brief: as §1

S. aureus hVISA = assay: MIC (broth microdilution or agar dilution, CLSI); conditions: Staphylococcus aureus; S. aureus hVISA; read-out: MIC
Method in brief: as §1

[3] = tested on: S. aureus ATCC BAA-1707 (MRSA); assay: MIC (broth microdilution or agar dilution, CLSI); conditions: Staphylococcus aureus; S. aureus ATCC BAA-1707 (MRSA); read-out: MIC
Method in brief: as §1

E. coli LptD = assay: MIC (broth microdilution or agar dilution, CLSI); conditions: Escherichia coli, E. coli LptD; read-out: MIC
Method in brief: as §1

S. pneumoniae ATCC 6303 = assay: MIC (broth microdilution or agar dilution, CLSI); conditions: Streptococcus pneumoniae, ATCC6303; S. pneumoniae ATCC 6303; read-out: MIC
Method in brief: as §1

S. pyogenes ATCC 19615 = assay: MIC (broth microdilution or agar dilution, CLSI)
Method in brief: as §1

S. aureus ATCC 29213 = assay: MIC (broth microdilution or agar dilution, CLSI)
Method in brief: as §1

S. aureus ATCC 700699 = assay: MIC (broth microdilution or agar dilution, CLSI); conditions: Staphylococcus aureus, ATCC700699; S. aureus ATCC 700699; read-out: MIC
Method in brief: as §1

[4] = tested on: S. pneumoniae MMX 3028 cErmB; assay: MIC (broth microdilution or agar dilution, CLSI); conditions: S. pneumoniae MMX 3028 cErmB
Method in brief: as §1

E. faecalis ATCC 29212 = assay: MIC (broth microdilution or agar dilution, CLSI)
Method in brief: as §1

[5] = tested on: S. pyogenes MMX 946; cErmB; assay: MIC (broth microdilution or agar dilution, CLSI); conditions: S. pyogenes MMX 946, cErmB
Method in brief: as §1

E. coli ΔTolC = assay: microbe, parasite or virus in culture; conditions: Escherichia coli, E. coli ΔTolC
Method in brief: as §1

E. coli armA = assay: microbe, parasite or virus in culture; conditions: Escherichia coli, E. coli armA
Method in brief: as §1

E. faecalis VRE [6] = assay: MIC (CLSI), first E. faecalis VRE line of Table 4; conditions: Enterococcus faecalis; E. faecalis VRE (Table 4, first VRE line); read-out: MIC
Experimental: (§2) Minimum inhibitory concentrations (MICs) were determined by broth microdilution method or agar dilution method following the Clinical and Laboratory Standards Institute guidelines. Standard bacterial strains were obtained from American Type Culture Collection (ATCC). Other bacterial strains were obtained from hospitals and commercial sources, so noted in Table 11. Before the start of the MIC experiment, standard and test compound stock solutions were prepared in dimethyl sulfoxide (DMSO, Aldrich D2650) at a stock concentration of 5,120 μg/mL. The compound concentration range typically employed for each experiment was 128-0.06 μg/mL (2.5% final DMSO concentration). Clindamycin was used as a comparator in all experiments and each experiment was performed in triplicate. Specialized procedures were employed for streptococcal and anaerobic strains. All other bacterial strains were sub-cultured on blood agar plates (tryptic soy agar with 5% sheep blood, Hardy Diagnostics) and incubated overnight at 35° C. Organisms were suspended in cation-adjusted Mueller-Hinton broth (CaMHB, BD 212322) and optical density was adjusted to 0.5 McFarland standard. Suspensions were further diluted to obtain a final inoculum of 5×10^5 CFU/mL for broth microdilution experiments.

E. faecalis VRE [7] = assay: MIC (CLSI), second E. faecalis VRE line of Table 4; conditions: Enterococcus faecalis; E. faecalis VRE (Table 4, second VRE line); read-out: MIC
Experimental: as §2

E. faecalis VRE [8] = assay: MIC (CLSI), third E. faecalis VRE line of Table 4; conditions: Enterococcus faecalis; E. faecalis VRE (Table 4, third VRE line); read-out: MIC
Experimental: as §2

S. aureus MRSA = assay: MIC (broth microdilution or agar dilution, CLSI); conditions: Staphylococcus aureus
Method in brief: (§3)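 Triplicate CLSI determinations by broth or agar dilution, compound at 128-0.06 μg/mL in 2.5% DMSO; special handling for anaerobes. Broth microdilution used 5×10^5 CFU/mL inocula in cation-adjusted Mueller-Hinton broth.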

E. faecium Line R & VRE = assay: MIC (broth microdilution or agar dilution, CLSI); conditions: Enterococcus faecium, E. faecium Line R & VRE, read-out: MIC
Method in brief: as §3

P. aeruginosa ATCC 27853 = assay: MIC (broth microdilution or agar dilution, CLSI); conditions: Pseudomonas aeruginosa, ATCC27853; P. aeruginosa ATCC 27853; read-out: MIC
Method in brief: as §3

E. faecium VRE = assay: MIC (broth microdilution or agar dilution, CLSI); conditions: Enterococcus faecium; E. faecium VRE; read-out: MIC
Method in brief: as §3

E. faecium Clinical VRE = assay: MIC (broth microdilution or agar dilution, CLSI); conditions: Enterococcus faecium; E. faecium Clinical VRE; read-out: MIC
Method in brief: as §3

S. aureus cErmA = assay: MIC (broth microdilution or agar dilution, CLSI); conditions: Staphylococcus aureus; S. aureus cErmA; read-out: MIC
Method in brief: as §3

E. coli MP-9 ΔTolC = assay: MIC (broth microdilution or agar dilution, CLSI); conditions: E. coli MP-9 ΔTolC
Method in brief: as §1

H. influenzae ATCC 49247 = assay: MIC (broth microdilution or agar dilution, CLSI); conditions: H. influenzae ATCC 49247
Method in brief: as §1

S. aureus MMX 3035 cErmA = assay: MIC (broth microdilution or agar dilution, CLSI); conditions: S. aureus MMX 3035 cErmA
Method in brief: as §1

K. pneumoniae ATCC 10031 = assay: MIC (broth microdilution or agar dilution, CLSI); conditions: K. pneumoniae ATCC 10031
Method in brief: as §1

S. aureus MP-549 msrA = assay: microbe, parasite or virus in culture; conditions: S. aureus MP-549 msrA
Method in brief: as §1

S. aureus BAA 977 iErmA = assay: microbe, parasite or virus in culture; conditions: S. aureus BAA 977 iErmA
Method in brief: as §1

C. difficile ATCC 700057 = assay: MIC (broth microdilution or agar dilution, CLSI); conditions: C. difficile ATCC 700057
Method in brief: as §3

B. fragilis ATCC 25285 = assay: MIC (broth microdilution or agar dilution, CLSI); conditions: B. fragilis ATCC 25285
Method in brief: as §3

[9] = tested on: E. coli MP-74 LptD mutant; assay: MIC (broth microdilution or agar dilution, CLSI); conditions: E. coli MP-74 LptD mutant
Method in brief: as §3

C. scindens ATCC 35704 = assay: MIC (broth microdilution or agar dilution, CLSI); conditions: C. scindens ATCC 35704
Method in brief: as §3

CS[C@H]1O[C@H]([C@H](NC(=O)[C@H]2NC[C@@H]3C[C@H](CC(C)C)CCO[C@H]32)[C@H](C)Sc2ccc(CN(C)C)cc2)[C@H](O)[C@H](O)[C@H]1O [FSA-09-04-092, (4S,5aS,8S,8aR)-N-((1S,2S)-2-((4-((Dimethylamino)methyl)phenyl)thio)-1-((2R,3R,4S,5R,6R)-3,4,5-trihydroxy-6-(methylthio)tetrahydro-2H-pyran-2-yl)propyl)-4-isobutyloctahydro-2H-oxepino[2,3-c]pyrrole-8-carboxamide]
MIC (K. oxytoca Clinical): 8 µg/mL (≈ 12.8 µM)
MIC (S. pneumoniae ATCC 49619; Streptococcus pneumoniae, ATCC49619, S. pneumoniae ATCC 49619, read-out: MIC): 0.25 µg/mL (≈ 0.399 µM)
MIC (E. coli ATCC 25922; Escherichia coli, ATCC25922, read-out: MIC): 4 µg/mL (≈ 6.39 µM)
MIC (A. baumannii ATCC 19606): 16 µg/mL (≈ 25.6 µM)
MIC ([1]; Streptococcus pneumoniae, MMX3031CMEFA, read-out: MIC): 0.06 µg/mL (≈ 0.0959 µM)
MIC ([2]; Enterococcus faecalis, read-out: MIC): 1 µg/mL (≈ 1.6 µM)
MIC (S. aureus hVISA): 16 µg/mL (≈ 25.6 µM)
MIC [3]: 0.25 µg/mL (≈ 0.399 µM)
MIC (E. coli LptD): 0.5 µg/mL (≈ 0.799 µM)
MIC (S. pneumoniae ATCC 6303): 0.06 µg/mL (≈ 0.0959 µM)
MIC (S. pyogenes ATCC 19615; Streptococcus pyogenes, ATCC19615, S. pyogenes ATCC 19615, read-out: MIC): 0.25 µg/mL (≈ 0.399 µM)
MIC (S. aureus ATCC 29213; Staphylococcus aureus, ATCC29213, S. aureus ATCC 29213, read-out: MIC): 0.5 µg/mL (≈ 0.799 µM)
MIC (S. aureus ATCC 700699): 8 µg/mL (≈ 12.8 µM)
MIC ([4]; Streptococcus pneumoniae, MMX3028CERMB, read-out: MIC): 0.125 µg/mL (≈ 0.2 µM)
MIC (E. faecalis ATCC 29212; Enterococcus faecalis, ATCC29212, E. faecalis ATCC 29212, read-out: MIC): 0.25 µg/mL (≈ 0.399 µM)
MIC ([5]; Streptococcus pyogenes, read-out: MIC): 0.25 µg/mL (≈ 0.399 µM)
MIC (E. coli ΔTolC): 0.25 µg/mL (≈ 0.399 µM)
MIC (E. coli armA): 4 µg/mL (≈ 6.39 µM)
MIC (E. faecalis VRE [6]): 4 µg/mL (≈ 6.39 µM)
MIC (E. faecalis VRE [7]): 8 µg/mL (≈ 12.8 µM)
MIC (E. faecalis VRE [8]): 4 µg/mL (≈ 6.39 µM)
MIC (S. aureus MRSA): 0.25 µg/mL (≈ 0.399 µM)
MIC (E. faecium Line R & VRE): 2 µg/mL (≈ 3.2 µM)
MIC (P. aeruginosa ATCC 27853): 64 µg/mL (≈ 102 µM)
MIC (E. faecium VRE): 4 µg/mL (≈ 6.39 µM)
MIC (E. faecium Clinical VRE): 1 µg/mL (≈ 1.6 µM)
MIC (S. aureus cErmA): 4 µg/mL (≈ 6.39 µM)

CSC1O[C@H]([C@H](NC(=O)[C@H]2NC[C@@H]3C[C@@H](C(C)C)CCO[C@H]32)[C@H](C)Cl)C(O)[C@@H](O)[C@H]1O (stereo partly shown) [FSA-512078a]
MIC (E. coli MP-9 ΔTolC): 2 µg/mL (≈ 4.16 µM)
MIC (S. pneumoniae ATCC 49619; S. pneumoniae ATCC 49619): 0.03 µg/mL (≈ 0.0624 µM)
MIC (E. coli ATCC 25922): 32 µg/mL (≈ 66.5 µM)
MIC [1]: 0.03 µg/mL (≈ 0.0624 µM)
MIC (H. influenzae ATCC 49247): 8 µg/mL (≈ 16.6 µM)
MIC (S. aureus MMX 3035 cErmA): 32 µg/mL (≈ 66.5 µM)
MIC [2]: 32 µg/mL (≈ 66.5 µM)
MIC (S. pyogenes ATCC 19615; S. pyogenes ATCC 19615): 0.02 µg/mL (≈ 0.0416 µM)
MIC (S. aureus ATCC 29213; S. aureus ATCC 29213): 0.06 µg/mL (≈ 0.125 µM)
MIC [4]: 8 µg/mL (≈ 16.6 µM)
MIC (K. pneumoniae ATCC 10031): 1 µg/mL (≈ 2.08 µM)
MIC (E. faecalis ATCC 29212; E. faecalis ATCC 29212): 0.25 µg/mL (≈ 0.52 µM)
MIC [5]: 8 µg/mL (≈ 16.6 µM)
MIC (S. aureus MP-549 msrA): 0.06 µg/mL (≈ 0.125 µM)
MIC (S. aureus BAA 977 iErmA): 0.06 µg/mL (≈ 0.125 µM)
MIC (C. difficile ATCC 700057): 1 µg/mL (≈ 2.08 µM)
MIC (B. fragilis ATCC 25285): 1 µg/mL (≈ 2.08 µM)
MIC [9]: 4 µg/mL (≈ 8.32 µM)
MIC (C. scindens ATCC 35704): 0.25 µg/mL (≈ 0.52 µM)
